In US20040224958A1, “Pyridopyrimidinone derivatives for treatment of neurodegenerative disease” (priority 2000, published 2004) one finds IC50 data, which are given here for 23 compounds.

In one test the target is Cdk5/p25 (Homo sapiens, UniProt Q00535). Nature of the test: Cyclin-Dependent Kinase 5 High Throughput Screening (cdk5-HTS) Assay. Particulars: high throughput screen. Type of test: biochemical. The gist of the method: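 IC50 determined from 33P incorporation into GST-RbCOOH captured on glutathione plates and read by scintillation counting. Reaction: 1.0 μg/mL Cdk5/p25, 20 μM [γ33P]ATP, pH 7.4 Tris buffer with MgCl2 and DTT, 30 min at room temperature, stopped with EDTA.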

The next test addresses cdc2/cyclinB (Homo sapiens, UniProt P06493). Nature of the test: Cyclin-Dependent Kinase Assay cdc2/cyclinB.
The target of a further test is cdk2/cyclinA (Homo sapiens, UniProt P24941). Nature of the test: Cyclin-Dependent Kinase Assay cdk2/cyclinA. The note with it: cdk2/A IC50.
The target of a further test is cdk2/cyclinE (Homo sapiens, UniProt P24941). The test can be described thus: Cyclin-Dependent Kinase Assay cdk2/cyclinE. Particulars: cdk2/E IC50.
The next test has as its target cdk4/D (Homo sapiens, UniProt P11802). Nature of the test: Cyclin-Dependent Kinase 4 (cdk4) Assay. Type of test: biochemical. Particulars: read-out: cdk4/D IC50.

cdc2/cyclinB, sequence (P06493 whole entry): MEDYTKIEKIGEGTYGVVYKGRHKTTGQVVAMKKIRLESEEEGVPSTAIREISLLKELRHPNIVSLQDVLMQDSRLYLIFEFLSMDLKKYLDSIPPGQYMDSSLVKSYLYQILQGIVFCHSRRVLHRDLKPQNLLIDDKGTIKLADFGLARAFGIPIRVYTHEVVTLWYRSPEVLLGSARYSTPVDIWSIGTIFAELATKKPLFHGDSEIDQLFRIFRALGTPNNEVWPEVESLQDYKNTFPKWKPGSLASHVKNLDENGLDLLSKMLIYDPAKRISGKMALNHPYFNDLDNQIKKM
cdc2/cyclinB, sequence (P14635 whole entry, further chain): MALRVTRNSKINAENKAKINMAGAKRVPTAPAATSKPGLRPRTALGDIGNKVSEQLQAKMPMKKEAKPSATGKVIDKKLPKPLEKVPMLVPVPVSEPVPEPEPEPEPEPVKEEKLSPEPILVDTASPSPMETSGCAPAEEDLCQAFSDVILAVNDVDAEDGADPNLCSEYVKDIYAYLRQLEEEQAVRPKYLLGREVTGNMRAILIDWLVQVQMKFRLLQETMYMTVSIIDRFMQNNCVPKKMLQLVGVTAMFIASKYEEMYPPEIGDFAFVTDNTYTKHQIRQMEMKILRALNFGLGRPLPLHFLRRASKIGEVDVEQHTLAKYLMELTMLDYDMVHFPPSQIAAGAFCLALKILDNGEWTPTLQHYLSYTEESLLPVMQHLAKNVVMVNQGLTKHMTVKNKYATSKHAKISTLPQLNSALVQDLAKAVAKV
cdk4/D, sequence (P11802 whole entry): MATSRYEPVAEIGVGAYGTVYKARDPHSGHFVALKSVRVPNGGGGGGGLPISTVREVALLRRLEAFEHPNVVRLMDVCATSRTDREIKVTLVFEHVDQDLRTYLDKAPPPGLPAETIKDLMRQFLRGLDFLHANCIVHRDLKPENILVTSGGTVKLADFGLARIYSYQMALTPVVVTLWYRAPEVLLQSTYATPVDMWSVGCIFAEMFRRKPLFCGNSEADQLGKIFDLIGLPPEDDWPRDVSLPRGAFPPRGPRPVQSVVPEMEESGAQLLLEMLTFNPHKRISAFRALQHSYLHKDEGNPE
cdk4/D, sequence (P24385 whole entry, further chain): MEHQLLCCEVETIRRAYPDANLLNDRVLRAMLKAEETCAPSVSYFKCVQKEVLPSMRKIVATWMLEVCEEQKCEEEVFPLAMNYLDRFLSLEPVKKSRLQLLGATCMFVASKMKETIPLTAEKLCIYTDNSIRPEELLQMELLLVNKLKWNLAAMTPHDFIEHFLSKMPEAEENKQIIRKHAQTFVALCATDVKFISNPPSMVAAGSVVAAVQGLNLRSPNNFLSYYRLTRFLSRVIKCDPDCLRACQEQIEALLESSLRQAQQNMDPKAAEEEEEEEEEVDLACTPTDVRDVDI

As to `CCC(CC)n1c(=O)ccc2cnc(Nc3ccc(Cl)c(Cl)c3)nc21` [Example 511, 2-(3,4-Dichloro-phenylamino)-8-(1-ethyl-propyl)-8H-pyrido[2,3-d]pyrimidin-7-one], the IC50 worked out at 50 nM on Cdk5/p25; 140 nM against cdc2/cyclinB; 290 nM against cdk2/cyclinA; 160 nM at cdk2/cyclinE; 220 nM at cdk4/D.
In the same order, the values of `CCC(CC)n1c(=O)ccc2cnc(Nc3cccc(O)c3)nc21` [Example 512, 8-(1-Ethyl-propyl)-2-(3-hydroxy-phenylamino)-8H-pyrido[2,3-d]pyrimidin-7-one] are 83 nM, 39 nM, 120 nM, 56 nM and 2200 nM.
On to `CCC(CC)n1c(=O)ccc2cnc(Nc3ccc(NC(C)=O)c(C)c3)nc21` [Example 513, N-{4-[8-(1-Ethyl-propyl)-7-oxo-7,8-dihydro-pyrido[2,3-d]pyrimidin-2-ylamino]-2-methyl-phenyl}-acetamide], for which the IC50 is 110 nM on Cdk5/p25; 160 nM on cdc2/cyclinB; 630 nM against cdk2/cyclinA; 330 nM on cdk2/cyclinE; 830 nM on cdk4/D.
In the same order, the values of `CCC(CC)n1c(=O)ccc2cnc(Nc3ccc(OC(F)(F)F)cc3)nc21` [Example 515, 8-(1-Ethyl-propyl)-2-(4-trifluoromethoxy-phenylamino)-8H-pyrido[2,3-d]pyrimidin-7-one] are 71 nM, 480 nM, 670 nM, 230 nM and 200 nM.
With `CCC(CC)n1c(=O)ccc2cnc(Nc3ccc4[nH]c5ccccc5c4c3)nc21` [Example 516, 2-(9H-Carbazol-3-ylamino)-8-(I-ethyl-propyl)-8H-pyrido[2,3-d]pyrimidin-7-one], the IC50 on Cdk5/p25 is 33 nM; at cdc2/cyclinB, 62 nM; at cdk2/cyclinA, 280 nM; against cdk2/cyclinE, 95 nM; on cdk4/D, 28 nM.
In the case of `CCC(CC)n1c(=O)ccc2cnc(Nc3ccc4oc(=O)[nH]c4c3)nc21` [Example 517, 8-(1-Ethyl-propyl)-2-(2-oxo-2,3-dihydro-benzoxazol-5-ylamino)-8H-pyrido[2,3-d]pyrimidin-7-one], the IC50 came to 18 nM against Cdk5/p25; 62 nM at cdc2/cyclinB; 56 nM at cdk2/cyclinA; 29 nM at cdk2/cyclinE; 130 nM on cdk4/D.
For the compound `CCC(CC)n1c(=O)ccc2cnc(Nc3ccc4cn[nH]c4c3)nc21` [Example 518, 8-(1-Ethyl-propyl)-2-(1H-indazol-6-ylamino)-8H-pyrido[2,3-d]pyrimidin-7-one], the IC50 against Cdk5/p25 is 17.5 nM; at cdc2/cyclinB, 31.5 nM; against cdk2/cyclinA, 57.5 nM; against cdk2/cyclinE, 53 nM; on cdk4/D, 365 nM.
For `CCC(CC)n1c(=O)ccc2cnc(Nc3ccc(C)c(NS(C)(=O)=O)c3)nc21` [Example 519, N-{5-[8-(1-Ethyl-propyl)-7-oxo-7,8-dihydro-pyrido[2,3-d]pyrimidin-2-ylamino]-2-methyl-phenyl}-methanesulfonamide], in that order: 33 nM, 47 nM, 310 nM, 140 nM and 150 nM.
For `CCC(CC)n1c(=O)ccc2cnc(Nc3ccc4c(c3)NC(=O)CS4)nc21` [Example 520, 8-(1-Ethyl-propyl)-2-(3-oxo-3,4-dihydro-2H-1,4-benzothiazin-6ylamino)-8H-pyrido[2,3-d]pyrimidin-7-one], in that order: 9.8 nM, 51 nM, 86 nM, 41 nM and 120 nM.
In the same order, the values of `CCC(CC)n1c(=O)ccc2cnc(Nc3cc(Cl)c(N)c(Cl)c3)nc21` [Example 521, 2-(4-Amino-3,5-dichloro-phenylamino)-S-(1-ethyl-propyl)-8H-pyrido[2,3-d]pyrimidin-7-one] are 42 nM, 67 nM, 220 nM, 98 nM and 67 nM.
On to `CCC(CC)n1c(=O)ccc2cnc(Nc3ccc(C)c(NC(C)=O)c3)nc21` [Example 522, N-{5-[8-(1-Ethyl-propyl)-7-oxo-7,8-dihydro-pyrido[2,3-d]pyrimidin-2-ylamino]-2-methyl-phenyl}-acetamide], for which the IC50 came to 300 nM at Cdk5/p25; 1100 nM against cdc2/cyclinB; 1600 nM against cdk2/cyclinA; 320 nM at cdk2/cyclinE; 360 nM at cdk4/D.
As for `CCC(CC)n1c(=O)ccc2cnc(Nc3cc(C)c(O)c(C)c3)nc21` [Example 523, 8-(1-Ethyl-propyl)-2-(4-hydroxy-3,5-dimethyl-phenylamino)-8H-pyrido[2,3-d]pyrimidin-7-one], the IC50 against Cdk5/p25 was 28 nM; at cdc2/cyclinB it was 93 nM; against cdk2/cyclinA, 160 nM; against cdk2/cyclinE, 46 nM; at cdk4/D, 390 nM.
Consider `CCC(CC)n1c(=O)ccc2cnc(Nc3ccc(O)c(C(=O)O)c3)nc21` [Example 524, 5-[8-(1-Ethyl-propyl)-7-oxo-7,8-dihydro-pyrido[2,3-d]pyrimidin-2-ylamino]-2-hydroxy-benzoic acid], for which the IC50 was determined as 290 nM at Cdk5/p25; 620 nM against cdc2/cyclinB; 650 nM on cdk2/cyclinA; 450 nM against cdk2/cyclinE; 2000 nM at cdk4/D.
Take `CCC(CC)n1c(=O)ccc2cnc(Nc3ccc4c(c3)CCC4)nc21` [Example 525, 8-(I-Ethyl-propyl)-2-(indan-5-ylamino)-8H-pyrido[2,3-d]pyrimidin-7-one]: the IC50 against Cdk5/p25 was found to be 27 nM; on cdc2/cyclinB, 99 nM; against cdk2/cyclinA it was 290 nM; against cdk2/cyclinE it was 110 nM; on cdk4/D it was 1200 nM.
With `CCC(CC)n1c(=O)ccc2cnc(Nc3ccc(C(F)(F)F)cc3)nc21` [Example 526, 8-(1-Ethyl-propyl)-2-(4-trifluoromethyl-phenylamino)-8H-pyrido[2,3-d]pyrimidin-7-one], the IC50 against Cdk5/p25 turned out to be 88 nM; on cdc2/cyclinB, 140 nM; on cdk2/cyclinA, 160 nM; against cdk2/cyclinE, 200 nM; on cdk4/D it was 85 nM.
With `O=c1ccc2cnc(Nc3ccc4[nH]ccc4c3)nc2n1C1CCCC1` [Example 528, 8-Cyclopentyl-2-(1H-indol-5-ylamino)-8H-pyrido[2,3-d]pyrimidin-7-one], the IC50 worked out at 36.3 nM against Cdk5/p25; 34.5 nM on cdc2/cyclinB; 74 nM on cdk2/cyclinA; 46.5 nM against cdk2/cyclinE; 12.7 nM on cdk4/D.
In the same order, the values of `O=c1ccc2cnc(Nc3ccc4cn[nH]c4c3)nc2n1C1CCCC1` [Example 529, 8-Cyclopentyl-2-(1H-indazol-6-ylamino)-8H-pyrido[2,3-d]pyrimidin-7-one] are 32 nM, 82.5 nM, 35.5 nM, 24 nM and 31 nM.
In the same order, the values of `O=c1ccc2cnc(Nc3cccc(C(F)(F)F)c3)nc2n1C1CCCC1` [Example 530, 8-Cyclopentyl-2-(3-trifluoromethyl-phenylamino)-8H-pyrido[2,3-d]pyrimidin-7-one] are 99 nM, 220 nM, 250 nM, 180 nM and 1700 nM.
For `N#Cc1ccc(Nc2ncc3ccc(=O)n(C4CCCC4)c3n2)cc1` [Example 531, 4-(8-Cyclopentyl-7-oxo-7,8-dihydro-pyrido[2,3-d]pyrimidin-2-ylamino)-benzonitrile], in that order: 50 nM, 170 nM, 74 nM, 100 nM and 51 nM.
For the compound `O=c1ccc2cnc(Nc3ccc(Cl)c(Cl)c3)nc2n1C1CCCC1` [Example 532, 8-Cyclopentyl-2-(3,4-dichloro-phenylamino)-8H-pyrido[2,3-d]pyrimidin-7-one], the IC50 on Cdk5/p25 was 210 nM; against cdc2/cyclinB, 510 nM; on cdk2/cyclinA, 780 nM; on cdk2/cyclinE, 630 nM; on cdk4/D, 1500 nM.
For `O=c1ccc2cnc(Nc3ccc(C(F)(F)F)cc3)nc2n1C1CCCC1` [Example 533, 8-Cyclopentyl-2-(4-trifluoromethyl-phenylamino)-81H-pyrido[2,3-d]pyrimidin-7-one], in that order: 66 nM, 250 nM, 330 nM, 140 nM and 150 nM.
In the same order, the values of `CC(C)(C)OC(=O)Nc1ccc(Nc2ncc3ccc(=O)n(C4CCCC4)c3n2)cc1` [Example 535, [4-(8-Cyclopentyl-7-oxo-7,8-dihydro-pyrido[2,3-d]pyrimidin-2-ylamino)-phenyl]-carbamic acid tert-butyl ester] are 74 nM, 145 nM, 220 nM, 88.7 nM and 63.5 nM.
In the same order, the values of `O=c1ccc2cnc(Nc3ccc4[nH]ncc4c3)nc2n1C1CCCC1` [Example 536, 8-Cyclopentyl-2-(1H-indazol-5-ylamino)-8H-pyrido[2,3-d]pyrimidin-7-one] are 19.7 nM, 18.5 nM, 31.5 nM, 14 nM and 25 nM.
